These results are taken from ChEMBL document CHEMBL1129191, “Syntheses of trans-3-substituted-CCG-IV analogs and their characterization to ionotropic glutamate receptors” (Bioorg Med Chem Lett, 1996).

The target of one test is Glutamate NMDA receptor. Nature of the test: Compound was evaluated for the inhibition of [3H]CGS-19,755 binding to NMDA receptor from rat brain synaptic membrane.
The target of test [1] is Glutamate receptor ionotropic, AMPA (Rattus norvegicus, UniProt P19490+P19491+P19492+P19493).
Description: Compound was evaluated for the inhibition of [3H]AMPA binding to Ionotropic glutamate receptor AMPA from rat brain synaptic membrane.

Bounds are passed on as bounds.

For orientation: IC50 means the concentration that inhibits the measured activity by half. On to `C=C(C)[C@H]1CN[C@H](C(=O)O)[C@H]1CC(=O)O` [KAINIC ACID], for which, on Glutamate NMDA receptor, the IC50 was over 100 µM.
`CN[C@H](CC(=O)O)C(=O)O` [N-METHYL-D-ASPARTIC ACID (NMDA)]: the values for the IC50 (in test [1]; at Glutamate NMDA receptor) were over 100 µM and 5.5 µM, respectively.
On to `N[C@H](C(=O)O)[C@@H]1[C@@H](COCc2ccccc2)[C@@H]1C(=O)O`, for which the IC50 in test [1] is over 100 µM; at Glutamate NMDA receptor, 21 µM.
`N[C@H](C(=O)O)[C@@H]1C[C@@H]1C(=O)O` showed an IC50 at Glutamate NMDA receptor of 0.0052 µM.
With `C=C1C[C@@H]([C@H](N)C(=O)O)[C@@H](C(=O)O)C1`, the half-maximal inhibitory concentration (IC50) in test [1] was 7.5 µM; at Glutamate NMDA receptor, over 100 µM.
For `CC[C@H]1[C@H](C(=O)O)[C@@H]1[C@H](N)C(=O)O`, in that order: 2 µM and 2 µM.
`COC[C@H]1[C@H](C(=O)O)[C@@H]1[C@H](N)C(=O)O`: the figures for the IC50 (in test [1]; on Glutamate NMDA receptor) were 4 µM and 50 µM, respectively.
The matching figures for `C=C[C@H]1[C@H](C(=O)O)[C@@H]1[C@H](N)C(=O)O`: 4 µM and 1.2 µM.
